Measurements as given in patent US20080103209A1, “Compounds And Methods For Treating Non-Inflammatory Pain Using Ppar Alpha Agonists” (The Regents of The University of California, priority 2004, published 2008).

What was measured:
[1] = system: mice; assay: Formalin-evoked pain behavior (hind paw licking); format: in vivo, mouse; conditions: for phase I and II formalin pain in wild-type mice: wild-type C57BL6 mice; for effect of CB2 antagonist on antinociceptive effect of GW7647: GW7647 50 μg i.pl.; for effect of CB2 antagonist on antinociceptive effect of GW7647 / effect of CB2 antagonist on antinociceptive effect of PEA: AM630 2 mg-kg^−1 i.p.; for effect of CB2 antagonist on antinociceptive effect of PEA: PEA 50 μg i.pl.
Description: Administration of formalin into the mouse hind paw evokes a pain behavior consisting of two temporally distinct phases of licking and flexing of the injected limb (Dubuisson, et al., Pain 4, 161-74 (1977)). The first phase, which starts immediately after formalin injection and lasts 5-10 min, is due to activation of nociceptive fibers and is accompanied by the local release of nitric oxide and adenosine [Dickenson, et al., Neurosci Lett 83, 207-11 (1987); Omote, et al., Brain Res 787, 161-4 (1998); Omote et al., 2000; Liu, et al., J Neurochem 80, 562-70 (2002)]. Following a quiescent interval of 10-15 minutes, a second phase of nociceptive behavior appears, which is associated with local inflammation [Rosland, et al., Pain 42, 235-42 (1990)] and central sensitization [Coderre, et al., J Neurosci 12, 3665-70 (1992)]. […] (2001); Farquuar-Smith, 2002]. […] The effects of PEA in C57BL/6J mice in which the PPARα gene had been deleted by homologous recombination (PPARα^−/−)[Lee, et al., Mol Cell Biol 15, 3012-22 (1995)] were examined to determine whether PPARα contributes to these properties.
Although PPARα is known to regulate the inflammatory response [Devchand, et al., Nature 384, 39-43. (1996); Cabrero, et al., Curr Drug Targets Inflamm Allergy 1, 243-8 (2002); Berger, et al., Annu Rev Med 53, 409-35 (2002); Chinetti, et al., Inflamm Res 49, 497-505 (2000)], its roles in the modulation of acute nociceptive pain remain unexplored. A series of structurally diverse PPAR-α agonists were tested for their ability to reduce pain behavior in an animal model of chemical tissue damage. Injection of formalin into the mouse hind paw evokes a nocifensive behavior consisting of two distinct phases. The first phase results from direct activation of nociceptive fibers and starts immediately after formalin administration, while the second phase develops over a period of approximately 60 min and is associated with local inflammation and central sensitization.
Mice received intraplantar injections of formalin (5% vol/vol, 10 μl) in saline containing polyethylene glycol (5%) and Tween 80 (5%). The duration of paw licking was monitored by an observer for periods of 0-15 min (early or first phase) and 15-45 min (late or second phase) immediately after formalin administration.
Formalin test. Formalin (5%, 10 μl)-induced paw licking was monitored for 0-15 min (first phase) and 15-45 min (second phase) as described (Calignano, et al., Nature 394, 277-81 (1998).

[2] = target: T1, human PPARα (Homo sapiens, UniProt Q07869); assay: PPARα transactivation assay (HeLa cells, luciferase reporter); format: cell-based
T1 construct: expressed in transfected cells
T1 sequence (Q07869 239-466 limits assumed): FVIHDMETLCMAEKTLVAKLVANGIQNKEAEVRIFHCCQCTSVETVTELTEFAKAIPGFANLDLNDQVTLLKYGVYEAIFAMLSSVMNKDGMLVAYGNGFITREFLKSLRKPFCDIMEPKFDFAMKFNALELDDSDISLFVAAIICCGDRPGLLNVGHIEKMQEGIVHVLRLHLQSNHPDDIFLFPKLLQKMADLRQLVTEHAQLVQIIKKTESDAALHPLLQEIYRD
Description: Transactivation assays were performed as previously described [Fu et al., Nature 425:90-93 (2003)].
PPAR-α transactivation. Plasmids were generated which contained the ligand-binding domain of human PPAR-α (nucleotides 499-1,407) fused to the DNA-binding domain of yeast GAL4 under control of the human cytomegalovirus promoter and to a neomycin resistance gene to provide stable selection with 0.2 mg-ml-1 G418 (Calbiochem). We cultured HeLa cells in Dulbecco's-modified Eagles's medium (DMEM) supplemented with fetal bovine serum (10%), transfected them with Fugene 6 ([…], Roche) containing the pFR-luc plasmid ([…], Stratagene) and, 18 h later, replaced the media with DMEM containing hygromycin (0.1 mg ml−1, Calbiochem). […] Cells were maintained in DMEM containing hygromycin and G418. For transactivation assays, we seeded cells in 6-well plates and incubated them for 7 h in DMEM containing hygromycin and G418, plus appropriate concentrations of test compounds. We used a dual-luciferase reporter assay system (Promega) and an MLX Microtiter® plate luminometer (Dynex) to determine luciferase activity in cell lysates.

[3] = system: Swiss mice; assay: Sciatic nerve ligation neuropathy, mechanical and thermal hyperalgesia; format: in vivo, mouse
Description: To examine whether PPARα agonists modulate the persistent pain hypersensitivity associated with nerve injury, peripheral neuropathy was produced in mice by partially ligating the left sciatic nerve, a surgical procedure that results in the development of mechanical and thermal hyperalgesia in the operated limb (Bennett et al., Pain, 33, 87 (1988)).
Sciatic nerve ligation was performed essentially following the method of Bennett and Xie (Bennett et al., Pain 33, 87 (1988)). Briefly, male Swiss mice were anesthetized with sodium pentobarbital, the left sciatic nerve was exposed at mid-thigh level through a small incision and one-third to one-half of the nerve thickness was tightly ligated with a silk thread. The wound was closed with a single muscle suture and skin clips, and dusted with streptomycin powder. In sham-operated animals, the nerve was exposed but not ligated.
Mechanical hyperalgesia was determined by measuring paw withdrawal thresholds to an increasing pressure onto the dorsal surface of the paw using an analgesimeter (Ugo Basile, Italy) with a cut-off of 250 g. Withdrawal thresholds were measured on both the ipsilateral paw (inflamed or ligated) and contralateral paw (uninflamed or unligated) 60 min after subcutaneous drug administration.
Thermal hyperalgesia was assessed by the methods of Hargreaves (Hargreaves et al., Pain, 32, 77 (1988)) by measuring the latency to withdraw the hind paws from a focussed beam of radiant heat applied to the plantar surface, using an appropriate apparatus (Ugo Basile, Italy). The cut-off time was set at 30 sec. The mice were habituated to the apparatus for 10-15 min two days prior to the experiment.

[4] = system: mice; assay: Magnesium sulfate-evoked writhing test; format: in vivo, mouse; conditions: subcutaneous, Swiss mice
Description: Mice received a single dose of magnesium sulfate (120 mg/kg, dissolved in 0.5 ml saline, i.p.) and subsequent writhing episodes were monitored for a period of 30 min thereafter. Drugs were administered in saline/Tween 80/polyethylenglycol, (90/5/5) subcutaneously, 30 minutes before magnesium sulfate.
Next, the effect of PPARα agonists on the nocifensive behavior elicited by intraperitoneal injection of magnesium sulfate in mice, a model of visceral pain (Calignano, et al, Eur J Pharmacol 419, 191-8. (2001)), was explored.
Writhing test. Magnesium sulfate was injected (120 mg-kg^−1 in 0.5 ml saline, i.p.) in 12-h food-deprived mice and measured writhing episodes for 30 min (Calignano, et al, Eur J Pharmacol 419, 191-8. (2001)). Drugs or vehicle were administered by subcutaneous injection 30 min before magnesium sulfate.

[5] = system: mice; assay: TPA-induced ear edema (irritant contact dermatitis); format: in vivo, mouse; conditions: topical co-application, CD1 mice
From the text: (§1) In addition to rapid-onset analgesia, PEA also exerts prolonged anti-inflammatory effects [Benvenuti, et al., Boll Soc It Biol Sper 44, 809-813 (1968); Lambert, et al., Curr Med. Chem. 9, 663-74 (2002)], which are associated with the down-regulation of pro-inflammatory proteins such as nitric oxide synthase (NOS) [Costa, et al., Br J Pharmacol 137, 413-20. (2002)]. Two models of acute inflammation were used to examine whether such effects are mediated through PPARα. First, paw edema was induced in C57B16J wild-type and PPARα^−/− mice by local injection of the irritant, carrageenan [Cirino, et al., Eur J Pharmacol 166, 505-10 (1989)]. […] Next, ear edema was produced in CD1 mice by topical administration of the phorbol ester, 12-O-tetradecanoylphorbol-13-acetate (TPA) [Sheu, et al., J Invest Dermatol., 94-101. (2002)]. […] In a parallel set of experiments, the effects of PEA (20 μg) on TPA-induced edema were tested in C57B16J wild-type and PPARα^−/− mice. […] Together, these findings indicate that PEA reduces acute nociception and inflammation through activation of PPARα.
As previous described procedure [Sheu, et al., J Invest Dermatol., 94-101. (2002)], 12-O-tetradecanoylphorbol-13-acetate (TPA) was dissolved in acetone (0.03%, w v^−1) and topically delivered with a pipette to the inner and outer surfaces (10 μl/side) of mice ears. Experimental agents were dissolved in acetone and delivered topically (20 μl/side) 45 minutes and 4 hours after TPA. 18 hours after TPA administration, the mice were euthanized with CO2 and the ears punched (diameter=2 mm) four times. The 4 excised punches of skin were combined and weighed to assess edema.

[6] = system: mice; assay: Carrageenan-evoked paw edema (acute); format: in vivo, mouse; conditions: wild-type C57Bl6J; PEA 10 mg-kg^−1 i.p., WY-14643 20 mg-kg^−1 i.p.
From the text: as §1
An inflammatory response was initiated by injecting 2% (w v^−1, 20 μl) λ-carrageenan in sterile saline into mice hind paws using a 27-gauge needle. Drugs were administered 30 minutes before carrageenan (i.p.). Paw edema was measured using a plethysmometer (Ugo Basile, Italy).

[7] = target: T2, human CB2 (Homo sapiens, UniProt P34972); assay: CB2 receptor binding, [3H]-WIN-55212-2 displacement in CB2-overexpressing CHO cell membranes
T2 construct: purchased Perkin-Elmer, Boston, Mass; host or cells: CHO cells (membranes)
T2 sequence (P34972 whole entry): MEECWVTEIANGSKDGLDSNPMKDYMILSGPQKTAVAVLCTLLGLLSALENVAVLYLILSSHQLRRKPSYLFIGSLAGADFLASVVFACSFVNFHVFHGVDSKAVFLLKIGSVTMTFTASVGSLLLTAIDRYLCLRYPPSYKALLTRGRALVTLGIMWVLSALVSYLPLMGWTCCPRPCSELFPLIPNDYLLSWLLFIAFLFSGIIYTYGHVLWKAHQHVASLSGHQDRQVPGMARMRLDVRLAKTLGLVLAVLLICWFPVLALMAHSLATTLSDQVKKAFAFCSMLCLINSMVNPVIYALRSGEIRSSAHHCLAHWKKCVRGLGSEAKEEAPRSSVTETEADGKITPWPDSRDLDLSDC

[8] = formalin, Swiss mice, SR144528 1 mg-kg^−1

With `CCCCC/C=C\C/C=C\C/C=C\C/C=C\CCCC(=O)N[C@H](C)CO` [(R)-methanandamide] the “formalin pain in PPARα−/− mice” value ([1]; PPARα−/− mice, 50 μg i.pl.) was “reversed”.
`Cc1c(C(=O)NN2CCCCC2)nn(-c2ccc(Cl)cc2Cl)c1-c1ccc(Cl)cc1` [SR141716] was tested, and the “effect on antinociception by anandamide plus PEA or GW7647” value ([1]; SR141716 0.1 mg kg^−1 i.v., 10 min before formalin, agonists 0.1 μg/paw each) was “prevents”.
`CCCCCCCCCCCCCCCC(=O)O` [palmitic acid] was tested, and the “PPARα activation” value ([2]; HeLa cells, identical conditions) was “no effect”.
For `NCC1(CC(=O)O)CCCCC1` [gabapentin], the “mechanical and thermal pain thresholds in the non-ligated paw of neuropathic mice” value ([3]; data not shown) was “did not affect” and the “neuropathic hypersensitivity (mechanical and thermal pain thresholds), ligated limb” value ([3]; single s.c. dose day 7 and 14 after surgery, 60 min before test, PEA, GW7647 30 mg-kg^−1, gabapentin 60 mg-kg^−1) was “comparable in magnitude”.
In the case of `Cc1cc(SCc2sc(-c3ccc(C(F)(F)F)cc3)nc2C)ccc1OCC(=O)O` [GW501516], the “phase I and II formalin pain in wild-type mice” value ([1]; 50 μg i.pl.) is reported as “inactive”.
With SR144528 the “antagonism of PEA-induced PPARα activation in vitro” value ([2]; PEA 10 μM, SR144528 0-5 μM) was “did not significantly antagonize”, the “effect of CB2 antagonist on antinociceptive effect of GW7647” value [1, 8] was “reverse” and the “effect of CB2 antagonist on antinociceptive effect of PEA” value [1, 8] was “blocked”. The “effect of CB2 antagonist on antinociceptive effect of Wy-14643” value ([1]; formalin, Swiss mice, Wy-14643 100 μg i.pl., SR144528 1 mg-kg^−1) was “reverse”.
For `Cc1cccc(Nc2cc(Cl)nc(SCC(=O)O)n2)c1C` [Wy-14643, [4-chloro-6-(2,3-xylidino)-2-pyrimidinylthio]acetic acid], the “average ED50, magnesium sulfate-evoked writhing” value ([4]; n=8) was 25 mg/kg, the “number of writhing episodes evoked by magnesium sulfate” value ([4]; GW7647 1-30, Wy-14643 4-80, PEA 1-20 mg-kg^−1) was “dose-dependently decreased the number of writhing episodes” and the “TPA-induced ear edema formation” value [5] was “attenuated”. The “carrageenan paw edema in wild-type mice” value [6] was “decreased edema”, the “first- and second-phase nociception” value ([1]; Swiss mice, i.pl. together with formalin, GW7647 0.1-50 μg, Wy-14643 50-200 μg, fenofibric acid 100-400 μg) was “attenuated first- and second-phase nociception in a dose-dependent manner” and the “average half-maximal effective dose (ED50) to reduce first-phase pain” value ([1]; intraplantar with formalin, Swiss mice, ten experiments) was 97.0 µg. For the same compound, the “[^3H]-WIN-55212-2 Binding (% of control)” value ([7]; Concentration 1 μM) was 104.2 ± 3.6 % of control and the “[^3H]-WIN-55212-2 Binding (% of control)” value ([7]; Concentration 10 μM) was 105.6 ± 1.5 % of control.
With `CC1(COc2ccc(CC3SC(=O)NC3=O)cc2)CCCCC1` (stereo not drawn) [ciglitazone] the “phase I and II formalin pain in wild-type mice” value ([1]; 50 μg i.pl.) was “inactive”.
For `COc1ccc(C(=O)c2c(C)n(CCN3CCOCC3)c3cc(I)ccc23)cc1` [AM630], the “effect of CB2 antagonist on antinociceptive effect of GW7647” value [1, 8] was “did not affect” and the “effect of CB2 antagonist on antinociceptive effect of PEA” value [1, 8] was “did not affect”.
